Reference: patent US12428422B2, “Purine derivatives as SIK-3 inhibitors” (RHIZEN PHARMACEUTICALS AG, priority 2020, dated 2025)

Tests used:
[1] = Pharmacokinetic evaluation of patient plasma samples from a human clinical trial; assay type: in vivo; conditions: metabolite is Compound M1
[2] = biological target: 6 isoform of PI3K (Homo sapiens, UniProt O00329); conditions: background statement; cited from earlier work
[3] = biological target: y isoform of PI3K (Homo sapiens, UniProt P48736); conditions: background statement; cited from earlier work
Chain of y isoform of PI3K (P48736 whole entry, canonical isoform): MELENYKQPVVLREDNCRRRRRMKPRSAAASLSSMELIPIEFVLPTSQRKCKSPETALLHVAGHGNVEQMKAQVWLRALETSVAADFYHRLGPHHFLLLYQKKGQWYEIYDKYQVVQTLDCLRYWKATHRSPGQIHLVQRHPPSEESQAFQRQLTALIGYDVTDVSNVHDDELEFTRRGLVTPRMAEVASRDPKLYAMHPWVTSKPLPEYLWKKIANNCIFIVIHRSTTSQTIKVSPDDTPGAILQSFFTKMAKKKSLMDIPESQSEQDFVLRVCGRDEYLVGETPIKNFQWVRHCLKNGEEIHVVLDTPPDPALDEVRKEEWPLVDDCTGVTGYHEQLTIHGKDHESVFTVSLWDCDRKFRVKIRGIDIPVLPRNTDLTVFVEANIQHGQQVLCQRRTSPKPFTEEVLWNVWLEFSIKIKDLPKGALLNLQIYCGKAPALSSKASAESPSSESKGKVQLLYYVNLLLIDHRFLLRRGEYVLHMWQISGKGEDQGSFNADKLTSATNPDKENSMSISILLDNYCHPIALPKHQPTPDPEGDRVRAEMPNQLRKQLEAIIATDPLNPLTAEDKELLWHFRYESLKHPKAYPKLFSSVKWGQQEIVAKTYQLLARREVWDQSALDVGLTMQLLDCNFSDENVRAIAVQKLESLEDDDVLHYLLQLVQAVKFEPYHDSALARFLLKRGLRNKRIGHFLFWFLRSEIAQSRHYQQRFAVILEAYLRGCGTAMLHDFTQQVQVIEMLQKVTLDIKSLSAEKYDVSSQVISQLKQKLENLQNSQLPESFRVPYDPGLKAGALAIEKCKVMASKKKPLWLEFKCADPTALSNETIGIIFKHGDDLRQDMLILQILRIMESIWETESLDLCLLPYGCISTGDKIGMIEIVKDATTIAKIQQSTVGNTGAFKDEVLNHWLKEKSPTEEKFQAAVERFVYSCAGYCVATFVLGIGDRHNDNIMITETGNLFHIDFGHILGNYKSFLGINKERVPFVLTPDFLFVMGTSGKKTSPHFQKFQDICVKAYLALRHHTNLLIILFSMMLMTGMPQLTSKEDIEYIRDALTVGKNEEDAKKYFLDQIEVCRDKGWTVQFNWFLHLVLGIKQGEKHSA

[4] = biological target: SIK3 (human) (Homo sapiens, UniProt Q9Y2K2); experiment: Enzymatic radiometric assay against human salt-inducible kinase-3 (SIK3); assay type: biochemical; conditions: at a concentration of 1 μM; read-out: inhibition of SIK-3 activity
Chain of SIK3 (human) (Q9Y2K2 whole entry): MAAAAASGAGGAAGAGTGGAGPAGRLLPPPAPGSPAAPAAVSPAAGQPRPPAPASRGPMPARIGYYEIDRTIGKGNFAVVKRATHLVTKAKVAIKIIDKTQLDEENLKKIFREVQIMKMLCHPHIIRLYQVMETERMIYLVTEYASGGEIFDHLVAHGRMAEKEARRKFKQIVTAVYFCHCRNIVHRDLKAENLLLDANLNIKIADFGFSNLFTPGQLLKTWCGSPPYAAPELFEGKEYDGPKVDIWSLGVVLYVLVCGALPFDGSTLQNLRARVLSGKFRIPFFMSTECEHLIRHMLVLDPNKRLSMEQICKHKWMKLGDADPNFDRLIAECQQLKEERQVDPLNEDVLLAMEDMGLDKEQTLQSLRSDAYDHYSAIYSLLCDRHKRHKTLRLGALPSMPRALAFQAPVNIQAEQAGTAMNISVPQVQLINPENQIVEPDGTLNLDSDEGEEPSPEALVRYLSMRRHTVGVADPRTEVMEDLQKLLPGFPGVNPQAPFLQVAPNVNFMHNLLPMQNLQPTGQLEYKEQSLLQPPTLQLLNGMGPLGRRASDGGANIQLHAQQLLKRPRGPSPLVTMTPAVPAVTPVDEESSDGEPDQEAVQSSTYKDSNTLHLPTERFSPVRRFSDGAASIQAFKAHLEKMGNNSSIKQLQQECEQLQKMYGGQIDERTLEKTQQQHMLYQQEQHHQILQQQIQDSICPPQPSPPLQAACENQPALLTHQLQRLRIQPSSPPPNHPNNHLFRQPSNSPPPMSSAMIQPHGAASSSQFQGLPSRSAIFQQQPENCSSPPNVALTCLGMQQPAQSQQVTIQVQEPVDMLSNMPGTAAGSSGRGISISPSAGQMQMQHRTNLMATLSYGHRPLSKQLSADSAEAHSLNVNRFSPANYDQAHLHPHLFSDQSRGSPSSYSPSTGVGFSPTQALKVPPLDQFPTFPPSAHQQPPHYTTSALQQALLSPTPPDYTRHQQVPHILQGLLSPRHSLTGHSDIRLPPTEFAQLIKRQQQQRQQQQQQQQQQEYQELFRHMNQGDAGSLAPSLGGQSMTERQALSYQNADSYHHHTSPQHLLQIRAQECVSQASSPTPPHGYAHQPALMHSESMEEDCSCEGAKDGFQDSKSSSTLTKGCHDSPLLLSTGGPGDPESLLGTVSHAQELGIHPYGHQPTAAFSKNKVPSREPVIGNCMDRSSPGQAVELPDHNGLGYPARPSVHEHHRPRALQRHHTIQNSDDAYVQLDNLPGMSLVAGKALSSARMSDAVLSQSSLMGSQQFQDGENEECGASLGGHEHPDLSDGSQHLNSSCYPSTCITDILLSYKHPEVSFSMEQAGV
Experimental: Assay 1: Determination of IC50 of Compound M1 Against Human Salt-Inducible Kinase-3 (SIK3) Using an Enzymatic Radiometric Assay
• SIK3 (human) was incubated with 8 mM MOPS pH 7.0, 0.2 mM EDTA, 100 uM of the peptide […] (Substrate), 10 mM Mg Acetate and [gamma-33P-ATP] (specific activity and concentration as required) in the presence of Compound M1. • The reaction was initiated by the addition of the Mg/ATP mix. • After incubation for 40 minutes at room temperature, the reaction was stopped by the addition of phosphoric acid to a concentration of 0.5%. • 10 μL of the reaction mixture was then spotted onto a P30 filtermat and washed four times for 4 minutes in 0.425% phosphoric acid and once in methanol prior to drying and scintillation counting. • The IC50 value was calculated using GraphPad Prism.

Chain of 6 isoform of PI3K (O00329 whole entry, canonical isoform): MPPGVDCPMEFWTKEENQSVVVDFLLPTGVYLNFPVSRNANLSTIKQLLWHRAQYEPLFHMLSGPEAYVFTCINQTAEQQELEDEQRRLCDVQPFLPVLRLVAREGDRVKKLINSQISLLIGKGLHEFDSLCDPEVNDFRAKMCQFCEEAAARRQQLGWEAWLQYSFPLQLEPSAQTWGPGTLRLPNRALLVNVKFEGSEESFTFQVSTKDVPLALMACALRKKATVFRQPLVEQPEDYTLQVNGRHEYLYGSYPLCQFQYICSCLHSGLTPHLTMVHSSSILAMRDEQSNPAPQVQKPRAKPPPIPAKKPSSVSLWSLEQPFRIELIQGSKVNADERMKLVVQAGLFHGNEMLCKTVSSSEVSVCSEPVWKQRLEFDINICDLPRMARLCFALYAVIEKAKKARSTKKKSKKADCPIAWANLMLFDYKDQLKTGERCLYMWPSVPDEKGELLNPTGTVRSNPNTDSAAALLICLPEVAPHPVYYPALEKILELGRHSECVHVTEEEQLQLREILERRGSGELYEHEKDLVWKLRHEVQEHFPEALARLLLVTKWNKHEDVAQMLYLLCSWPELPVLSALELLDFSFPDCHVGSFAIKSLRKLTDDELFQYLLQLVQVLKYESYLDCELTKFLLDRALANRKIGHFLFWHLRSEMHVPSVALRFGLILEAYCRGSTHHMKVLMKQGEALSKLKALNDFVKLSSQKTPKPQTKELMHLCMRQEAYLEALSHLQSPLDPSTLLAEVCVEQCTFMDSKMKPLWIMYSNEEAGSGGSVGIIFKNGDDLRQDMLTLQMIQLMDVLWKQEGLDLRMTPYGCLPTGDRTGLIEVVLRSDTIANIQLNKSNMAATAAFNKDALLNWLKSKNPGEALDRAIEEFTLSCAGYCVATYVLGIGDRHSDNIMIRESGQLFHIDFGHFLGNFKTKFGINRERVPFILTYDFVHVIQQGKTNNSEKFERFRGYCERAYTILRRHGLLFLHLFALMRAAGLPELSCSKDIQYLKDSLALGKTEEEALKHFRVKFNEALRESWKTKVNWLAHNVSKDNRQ
Chain of 6 isoform of PI3K (P27986 whole entry partner, canonical isoform): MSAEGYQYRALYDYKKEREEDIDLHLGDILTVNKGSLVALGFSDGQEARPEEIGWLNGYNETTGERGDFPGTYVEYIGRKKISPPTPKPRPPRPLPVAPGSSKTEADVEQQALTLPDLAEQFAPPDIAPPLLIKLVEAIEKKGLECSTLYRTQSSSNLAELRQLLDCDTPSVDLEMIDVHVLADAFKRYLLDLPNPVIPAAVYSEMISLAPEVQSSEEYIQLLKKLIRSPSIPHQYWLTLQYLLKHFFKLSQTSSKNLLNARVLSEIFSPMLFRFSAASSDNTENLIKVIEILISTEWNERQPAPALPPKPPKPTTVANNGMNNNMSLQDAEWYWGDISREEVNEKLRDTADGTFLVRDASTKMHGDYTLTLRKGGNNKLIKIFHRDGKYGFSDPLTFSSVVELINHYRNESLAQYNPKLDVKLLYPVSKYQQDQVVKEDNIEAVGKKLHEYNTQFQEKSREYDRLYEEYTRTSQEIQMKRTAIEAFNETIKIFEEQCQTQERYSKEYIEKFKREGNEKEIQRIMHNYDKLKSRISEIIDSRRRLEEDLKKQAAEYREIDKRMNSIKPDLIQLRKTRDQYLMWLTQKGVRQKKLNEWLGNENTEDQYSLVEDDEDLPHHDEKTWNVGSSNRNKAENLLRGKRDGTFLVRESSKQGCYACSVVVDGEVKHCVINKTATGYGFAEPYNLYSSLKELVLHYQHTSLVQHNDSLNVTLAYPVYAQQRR

| inhibition at 1 µM [4] [%] | SMILES | metabolism in patients (metabolite formation) [1] | potency against the 6 isoform of PI3K [2] | potency against the 7 isoform of PI3K [3] |
| --- | --- | --- | --- | --- |
|  | CC[C@H](Nc1ncnc2nc[nH]c12)c1oc2ccccc2c(=O)c1-c1cccc(F)c1 [Tenalisib, 3-(3-fluorophenyl)-2-[(1S)-1-(7H-purin-6-ylamino)propyl]-chromen-4-one] | underwent metabolism to produce in some subjects | nanomolar potency | nanomolar potency |
| 100 | CC[C@@H](Nc1ncnc2[nH]c(O)nc12)c1oc2ccccc2c(=O)c1-c1cccc(F)c1 [Compound M2, (R)-3-(3-fluorophenyl)-2-(1-((8-hydroxy-9H-purin-6-yl)amino)propyl)-4H-chromen-4-one] |  |  |  |
